Measurements: article PMC11594329, “Development of LAT1-Selective Nuclear Medicine Therapeutics Using Astatine-211” (International Journal of Molecular Sciences, 2024)

Test system: LAT1-Tet/HEK293 cells
Experiment: Uptake versus LAT1 expression level (Dox-induced) in LAT1-Tet/HEK293 cells
Format: cell-based
Conditions: collection 30 min after treatment
Experimental: Each cell line was seeded in 24 wells at 1 × 10^5 cells/mL and allowed to become sub-confluent on the day of the experiment. Cells were washed with PBS (-) (Fujifilm Wako Pure Chemical, Osaka, Japan) prior to the addition of the compound, which was then replaced with uptake buffer. After treating the cells with the same dose, they were collected at predetermined time points. The cell dose was measured using a γ-counter (Wizard^2 2480; PerkinElmer, Waltham, MA, USA), and the protein content of the sample was determined. Protein content was measured using the BCA method, and the dose was corrected using the protein content (Protein Assay BCA kit, Fujifilm Wako Pure Chemical).
Figure 2 Comparison of uptake between the labeled compounds. (A) Relation between uptake ratio and LAT1 expression level. Uptake ratios were compared between LAT1-Tet/HEK293 cells. The Y-axis represents the uptake ratio, and the X-axis is concentration of Doxycycline (Dox) (TaKaRa Bio, Shiga, Japan). The collection time was 30 min after treatment. The expression of LAT1 increased with increasing amounts of Dox. (B) Comparison of uptake in PANC-1 cell line. The collection times were 0.5, 1, 5 and 10 min after treatment.
The PANC-1 cell line was obtained from the RIKEN Cell Bank and maintained in RPMI 1640 medium (Fujifilm Wako Pure Chemical, Osaka, Japan) supplemented with 10% inactivated fetal bovine serum (Thermo Fisher Scientific, Waltham, MA, USA). Mock/HEK293, LAT1/HEK293, and LAT2/HEK203 cells were kindly provided by Dr. Kanai. Cell lines controlling LAT1 expression were constructed using the Tet-on system. HEK293 cells were obtained from the RIKEN Cell Bank and maintained in E-MEM (Fujifilm Wako Pure Chemical) supplemented with 10% inactivated fetal bovine serum (Thermo Fisher Scientific) and non-essential amino acids (Fujifilm Wako Pure Chemical). The expression vectors were purchased from VectorBuilder, Inc. (Kanagawa, Japan). The purified viral particle genes were transfected into HEK293 cells. Drug selection and cloning of the cell line (Tet-LAT1/HEK293) were performed. […]

## COc1ccc(C[C@](C)(N)C(=O)O)cc1[211At] [^211At-AAMT-O-Me-L, (S)-2-amino-3-(3-(astato-^211At)-4-methoxyphenyl)-2-methylpropanic acid]
  Uptake ratio versus LAT1 expression (doxycycline concentration): highest increase in uptake
